# Like-named read-outs stand apart in the source and are kept apart here.
# Assays:
# hBAT5 [1] = molecular target: T1, hBAT5 (Homo sapiens, UniProt O95870); experiment: Free fatty acid release assay, hBAT5-HEK293 lysates; type: biochemical; design: host or cells: HEK293; conditions: 25 µM substrate; without BSA; 10 and 20 min
# T1 sequence (O95870 1-558): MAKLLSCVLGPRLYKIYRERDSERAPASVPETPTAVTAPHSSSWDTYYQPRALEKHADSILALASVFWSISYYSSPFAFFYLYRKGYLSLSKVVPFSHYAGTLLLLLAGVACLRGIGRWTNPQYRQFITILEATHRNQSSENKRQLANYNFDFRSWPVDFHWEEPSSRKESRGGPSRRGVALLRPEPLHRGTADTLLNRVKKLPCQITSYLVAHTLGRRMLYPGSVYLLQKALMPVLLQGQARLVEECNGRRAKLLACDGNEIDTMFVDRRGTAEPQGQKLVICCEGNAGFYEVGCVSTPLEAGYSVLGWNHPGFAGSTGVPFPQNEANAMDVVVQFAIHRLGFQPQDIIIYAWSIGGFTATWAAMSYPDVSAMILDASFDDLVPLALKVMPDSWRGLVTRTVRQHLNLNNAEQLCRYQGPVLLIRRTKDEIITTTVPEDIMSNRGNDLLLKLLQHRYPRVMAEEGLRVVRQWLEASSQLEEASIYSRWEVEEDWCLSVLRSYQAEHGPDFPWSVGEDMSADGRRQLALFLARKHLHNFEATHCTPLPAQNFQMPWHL
# Method: (§1) Figure 4 Fatty acid liberation from various substrates when incubated together with lysates of HEK293 cells expressing hBAT5 or hABHD12. […] Assay blank and fatty acid standard (C18∶1) were included for each condition. FFA content was determined at time-points 10 and 20 min. Data are mean ± SEM from quadruplicate wells in one experiment.
# (§2) We adapted the Free Fatty Acid Assay Kit (Cayman Chemical Item Number 700310) to kinetically monitor fatty acid release from selected substrates using lysates of HEK293 cells (0.3 µg/well) transiently expressing hBAT5 or hABHD12 (as a positive control). The assay protocol was tailored to closely follow the scheme of the 96-well-plate glycerol assay with the exception that BSA was omitted. […] For each tested substrate, assay blank without enzyme and a fatty acid standard (C18∶1-FA, 500 pmol/well) was included.
# hABHD12 = molecular target: T2, hABHD12 (Homo sapiens, UniProt Q8N2K0); experiment: Free fatty acid release assay, hABHD12-HEK293 lysates; type: biochemical; conditions: 25 µM substrate; without BSA; 10 and 20 min
# T2 construct: expressed in transfected cells; host or cells: HEK293
# T2 sequence (Q8N2K0 1-398): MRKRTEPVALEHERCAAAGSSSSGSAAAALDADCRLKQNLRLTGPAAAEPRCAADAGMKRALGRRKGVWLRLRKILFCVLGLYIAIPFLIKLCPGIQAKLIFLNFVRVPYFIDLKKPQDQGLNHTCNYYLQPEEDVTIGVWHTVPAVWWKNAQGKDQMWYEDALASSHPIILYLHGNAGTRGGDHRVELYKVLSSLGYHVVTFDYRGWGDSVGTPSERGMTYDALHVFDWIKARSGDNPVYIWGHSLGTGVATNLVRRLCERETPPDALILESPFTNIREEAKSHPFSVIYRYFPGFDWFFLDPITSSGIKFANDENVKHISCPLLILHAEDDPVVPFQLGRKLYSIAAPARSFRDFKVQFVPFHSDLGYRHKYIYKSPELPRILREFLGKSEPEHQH
# Method: as §1, §2
# hBAT5 [2] = molecular target: T1, hBAT5; experiment: hBAT5 substrate hydrolysis and Michaelis-Menten kinetics (glycerol assay, hBAT5-HEK293 lysates); conditions: 25 µM substrate
# Method: HEK293 cells were transiently transfected with the cDNA encoding hBAT5, as detailed in the Methods section. After 48 h, cells were harvested and lysates prepared for hydrolase activity measurements using a sensitive fluorescent glycerol assay. […] Glycerol production was determined at time-point 60 min.
# After 48 h, cells were harvested and lysates prepared for hydrolase activity measurements. Cellular lysates (0.3 µg/well) were incubated together with the indicated concentrations of 1-LG in assay mixes containing (+ BSA) or not (– BSA) 0.5% (w/v) BSA (A) or with 15d-PGJ2-G in assay mix containing BSA (B). […] As crude cellular lysates were used, total protein concentration was used instead of true enzyme concentration. […] Values are mean ± SEM from three independent experiments.
# Glycerol liberated from the hydrolysis of glycerolipid substrates was determined kinetically using a fluorometric assay, essentially as previously described [10]. Briefly, glycerol production was coupled via a three-step enzymatic cascade to hydrogen peroxide (H2O2) dependent generation of resorufin whose fluorescence (λex 530; λem 590 nm) was kinetically monitored using a Tecan Infinite M200 plate reader (Tecan Group Ltd., Männedorf, Switzerland). The assays routinely contained 0.5% (w/v) BSA (essentially fatty acid free) as a carrier for lipophilic compounds. […] The twelve MAG substrates were tested also in assays without BSA. In addition, four commercially available PG-Gs were included. To monitor assay performance, assay blanks without enzyme, cellular background (HEK293/Mock cell lysates) as well as a glycerol standard were included for each tested substrate. Fluorescence of the assay blank was subtracted before calculation of the final results.
# MAGL = molecular target: T3, MAGL (Mus musculus, UniProt O35678); experiment: Competitive ABPP, mouse brain membrane proteome: MAGL doublet; conditions: reference inhibitor at the indicated concentration, used to identify the band (refs 21, 22)
# T3 sequence (O35678 1-303): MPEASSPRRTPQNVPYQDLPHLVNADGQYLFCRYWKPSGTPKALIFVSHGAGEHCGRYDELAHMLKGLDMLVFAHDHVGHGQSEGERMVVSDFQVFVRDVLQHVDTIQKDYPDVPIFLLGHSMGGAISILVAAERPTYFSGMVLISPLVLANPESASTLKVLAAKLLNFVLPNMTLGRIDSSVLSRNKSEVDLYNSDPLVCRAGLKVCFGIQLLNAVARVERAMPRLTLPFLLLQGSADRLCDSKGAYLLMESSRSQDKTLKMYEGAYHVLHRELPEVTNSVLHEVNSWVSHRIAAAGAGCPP
# ABHD6 = molecular target: T4, ABHD6 (Mus musculus, UniProt Q8R2Y0); experiment: Competitive ABPP, mouse brain membrane proteome: ABHD6 band; conditions: reference inhibitor at the indicated concentration, used to identify the band (refs 18, 23, 24)
# T4 sequence (Q8R2Y0 1-336): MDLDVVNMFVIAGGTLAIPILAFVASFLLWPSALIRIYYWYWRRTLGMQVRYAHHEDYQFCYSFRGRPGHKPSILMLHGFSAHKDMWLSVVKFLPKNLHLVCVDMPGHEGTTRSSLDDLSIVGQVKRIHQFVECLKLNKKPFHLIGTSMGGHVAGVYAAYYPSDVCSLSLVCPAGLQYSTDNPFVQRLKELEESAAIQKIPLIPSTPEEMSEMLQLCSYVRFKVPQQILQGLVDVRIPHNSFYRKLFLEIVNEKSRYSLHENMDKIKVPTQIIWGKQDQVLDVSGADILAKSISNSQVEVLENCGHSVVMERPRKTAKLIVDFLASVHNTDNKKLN
# hBAT5 [3] = molecular target: T1, hBAT5; experiment: Inhibition of 1-LG hydrolysis in hBAT5-HEK293 lysates (fluorescent glycerol assay); type: biochemical; design: host or cells: HEK293; conditions: for hBAT5 inhibitory activity (in words): 1-LG hydrolysis; for remaining activity at 10 µM: at 10^-5 M; for fold decrease in activity when methyl (40) is replaced: 5-position substituent, relative to 40
# [4] = 1-LG 25 µM, 30 min inhibitor pretreatment, monitored 90 min, mean, n=3, read-out: IC50
# [5] = printed as LogIC50 with negative sign, 1-LG 25 µM, 30 min pretreatment, Figures 9 and 10, read-out: LogIC50 Mean ± SEM, n=3 (converted)
compound,measurement,setting,value
"CCCCC/C=C\C/C=C\C/C=C\C/C=C\CCCC(=O)OC[C@@H](O)CO [1-AG, 1-arachidonoylglycerol]",fatty acid release by hBAT5 (in words),hBAT5 [1],hydrolyzed
same,fatty acid release by hABHD12 (in words),hABHD12,hydrolyzed
CCCCCCCCCCCCCCCCCC(=O)OC[C@@H](O)CO [1-SG],"hydrolysis by hBAT5 (substrate utilization, in words)","hBAT5 [2]; with 0.5% BSA, 60 min",not utilized
O=C(N1CCC(C(c2ccc3c(c2)OCO3)c2ccc3c(c2)OCO3)CC1)n1cncn1 [JJKK-048],inhibition of probe labeling of MAGL by reference inhibitor,MAGL,inhibited
"CCCCCCCC/C=C\CCCCCCCC(=O)OC[C@@H](O)COP(=O)(O)O [LPA, 1-oleoyl-lysophosphatidic acid]",fatty acid release by hBAT5 (in words),hBAT5 [1],no statistically significant liberation of oleic acid
same,fatty acid release by hABHD12 (in words),hABHD12,not from LPA
"CCCCCCCC/C=C\CCCCCCCC(=O)OC[C@@H](O)COP(=O)(O)OC[C@H](N)C(=O)O [LPS, 1-oleoyl-lysophosphatidylserine]",fatty acid release by hBAT5 (in words),hBAT5 [1],no statistically significant liberation of oleic acid
same,fatty acid release by hABHD12 (in words),hABHD12,catalyzed oleic acid release
"CCCCCCCCCCCCCCCC(=O)OC(CO)CO [MAGs C16∶0, 2-palmitoyl-rac–glycerol]","hydrolysis by hBAT5 (substrate utilization, in words)",hBAT5 [2]; without BSA,barely detectable hydrolysis
"CCCCC[C@H](O)/C=C/[C@@H]1[C@@H](C/C=C\CCCC(=O)OCC(O)CO)[C@@H](O)C[C@H]1O (stereo partly drawn) [PG-F2α-G, prostaglandin F2α-1-glycerol ester]","hydrolysis by hBAT5 (substrate utilization, in words)","hBAT5 [2]; with 0.5% BSA, 60 min",low
"CCCCC[C@H](O)/C=C/[C@H]1C(=O)C[C@H](O)[C@@H]1C/C=C\CCCC(=O)OCC(O)CO (some centres unmarked) [PGD2-G, prostaglandin D2-1-glycerol ester]","hydrolysis by hBAT5 (substrate utilization, in words)","hBAT5 [2]; with 0.5% BSA, 60 min",to lesser extend
"CCCCC[C@H](O)/C=C/[C@H]1[C@H](O)CC(=O)[C@@H]1C/C=C\CCCC(=O)OCC(O)CO (some centres unmarked) [PGE2-G, prostaglandin E2-1-glycerol ester]","hydrolysis by hBAT5 (substrate utilization, in words)","hBAT5 [2]; with 0.5% BSA, 60 min",low
CN(Cc1cccc(-c2ccncc2)c1)C(=O)Oc1ccc(-c2ccc(C(N)=O)cc2)cc1 [WWL70],inhibition of probe labeling of ABHD6 by reference inhibitor,ABHD6,inhibited
"COc1nn(-c2ccc([N+](=O)[O-])cc2)c(=O)o1 [compound 41, 5-Methoxy-3-(4-nitrophenyl)-1,3,4-oxadiazol-2(3H)-one]",IC50,hBAT5 [3]; [4],339 nM
COc1nn(-c2ccccc2F)c(=O)o1 [compound 42],IC50,hBAT5 [3]; [4],50 nM
COc1nn(-c2cccc(F)c2)c(=O)o1 [compound 43],IC50,hBAT5 [3]; [5],41.7 nM
COc1nn(-c2ccc(Br)cc2)c(=O)o1 [compound 45],IC50,hBAT5 [3]; [4],110 nM
COc1nn(-c2ccc(I)cc2)c(=O)o1 [compound 46],IC50,hBAT5 [3]; [4],355 nM
COc1nn(-c2cccc(C#N)c2)c(=O)o1 [compound 47],IC50,hBAT5 [3]; [4],78 nM
COc1nn(-c2ccccc2C)c(=O)o1 [compound 48],hBAT5 inhibitory activity (in words),hBAT5 [3],inactive
same,remaining activity at 1 µM,"hBAT5 [3]; at 10^-6 M, 1-LG 25 µM",93.4 ± 1.9%
COc1nn(Cc2cccc(Oc3ccccc3)c2)c(=O)o1 [compound 49],hBAT5 inhibitory activity (in words),hBAT5 [3],loss of hBAT5 inhibitory activity
same,remaining activity at 10 µM,hBAT5 [3]; 1-LG 25 µM,102 ± 8.2%
"COc1nn(Cc2cccc([N+](=O)[O-])c2)c(=O)o1 [compound 50, 5-Methoxy-3-(3-nitrobenzyl)-1,3,4-oxadiazol-2(3H)-one]",hBAT5 inhibitory activity (in words),hBAT5 [3],loss of hBAT5 inhibitory activity
same,remaining activity at 10 µM,hBAT5 [3]; 1-LG 25 µM,99.3 ± 4.7%
"CCOc1nn(-c2cccc([N+](=O)[O-])c2)c(=O)o1 [compound 51, 5-Ethoxy-3-(3-nitrophenyl)-1,3,4-oxadiazol-2(3H)-one]",IC50,hBAT5 [3]; [4],126 nM
same,fold decrease in activity when methyl (40) is replaced,hBAT5 [3],about twofold
"O=c1oc(Oc2ccccc2)nn1-c1cccc([N+](=O)[O-])c1 [compound 52, 3-(3-Nitrophenyl)-5-phenoxy-1,3,4-oxadiazol-2(3H)-one]",IC50,hBAT5 [3]; [4],138 nM
same,fold decrease in activity when methyl (40) is replaced,hBAT5 [3],about twofold
"O=c1oc(OCc2ccccc2)nn1-c1cccc([N+](=O)[O-])c1 [compound 53, 5-(Benzyloxy)-3-(3-nitrophenyl)-1,3,4-oxadiazol-2(3H)-one]",fold decrease in activity when methyl (40) is replaced,hBAT5 [3],24 fold
same,IC50,hBAT5 [3]; [5],1480 nM
"COc1ccc(Oc2nn(-c3cccc([N+](=O)[O-])c3)c(=O)o2)cc1 [compound 54, 5-(4-Methoxyphenoxy)-3-(3-nitrophenyl)-1,3,4-oxadiazol-2(3H)-one]",IC50,hBAT5 [3]; [4],631 nM
same,fold decrease in activity when methyl (40) is replaced,hBAT5 [3],10 fold
"O=c1oc(Oc2ccc([N+](=O)[O-])cc2)nn1-c1cccc([N+](=O)[O-])c1 [compound 55, 5-(4-Nitrophenoxy)-3-(3-nitrophenyl)-1,3,4-oxadiazol-2(3H)-one]",hBAT5 inhibitory activity (in words),hBAT5 [3],weakest inhibitor of this series
same,remaining activity at 10 µM,hBAT5 [3]; 1-LG 25 µM,50.5 ± 3.7%

# Source: publication PMC4188605, “Biochemical and Pharmacological Characterization of the Human Lymphocyte Antigen B-Associated Transcript 5 (BAT5/ABHD16A)” (PLoS ONE, 2014)
